In series [1] the target is Ba/F3 cells overexpressing EGFR Del19/T790M/C797S (Homo sapiens, UniProt P00533, T790M/C797S, cells depend on it, form not given). The experiment in a line: Cell proliferation inhibitory activity assay, Ba/F3 EGFR Del19/T790M/C797S. Particulars: cell proliferation inhibition, 72 hours, luminescence; read-out: Ba/F3 cells overexpressing different EGFR mutations IC50 (nM) Del19/T790M/C797S. It counts as cell-based. Here is the method:
(§1) Suspension cells Ba/F3 (EGFR. Dell9/T790M/C797S), Ba/F3 (EGFR L858R/T790M/C797S), Ba/F3 (EGFR Del19/C797S), and Ba/F3 (EGFR L858R/C797S) overexpressing different EGFR mutations were cultured in PRMI 1640 containing 10% FBS and 1% PS, and adherent cells A431 carrying EGFR WT were cultured in DMEM containing 10% FBS and 1% PS. The experimental steps for compound activity detection are as follows: • (1) Take adherent cells in the logarithmic growth phase, digest them with trypsin count them, and then inoculate them into a 96-well plate at a certain density. Incubate them overnight at 37° C. and 5% CO2 to allow them to adhere.
(§2) Y=minimum+([…])/(1+10^((Log IC50−X)*slope)); • X: logarithm of compound concentration; Y: cell survival inhibition rate.

Series [2] concerns the target Ba/F3 (EGFR L858R/T790M/C797S) (Homo sapiens, UniProt P00533, T790M/C797S/L858R, cells depend on it). The experiment in a line: Cell proliferation inhibitory activity assay, Ba/F3 EGFR L858R/T790M/C797S. It counts as cell-based. The following applies: cell proliferation inhibition, 72 hours, luminescence; read-out: Ba/F3 cells overexpressing different EGFR mutations IC50 (nM) L858R/T790M/C797S. Here is the method: as §1, §2

Another series concerns the target Ba/F3 (EGFR Del19/C797S) (Homo sapiens, UniProt P00533, C797S, cells depend on it, form not given). Put plainly: Cell proliferation inhibitory activity assay, Ba/F3 EGFR Del19/C797S. It counts as cell-based. Particulars: cell proliferation inhibition, 72 hours, luminescence; read-out: Ba/F3 cells overexpressing different EGFR mutations IC50 (nM) Del19/C797S. Here is the method:
as §1, §2

The next series deals with Ba/F3 (EGFR L858R/C797S) (Homo sapiens, UniProt P00533, C797S/L858R, cells depend on it). The experiment in a line: Cell proliferation inhibitory activity assay, Ba/F3 EGFR L858R/C797S. The following applies: cell proliferation inhibition, 72 hours, luminescence; read-out: Ba/F3 cells overexpressing different EGFR mutations IC50 (nM) L858R/C797S. It counts as cell-based. Here is the method: as §1, §2

Series [3] concerns A431 cell carrying EGFR WT. The experiment in a line: Cell proliferation inhibitory activity assay, A431. It counts as cell-based. Particulars: Homo sapiens, A-431; cell proliferation inhibition, 72 hours, luminescence. Here is the method:
as §1, §2

The nature of another series: Pharmacokinetics in rats. It counts as in vivo, rat. The following applies: rat, po, male SD rats, 5 mg/kg orally by gavage, plasma; for Cmax: read-out: Cmax. Here is the method: Male SD rats (200-300 g) were used for rat PK studies. Compounds were prepared and prepared immediately before use. Rats were administered intravenously or orally by gavage. Blood was collected from the rats through the orbital venous plexus, and 100 μL whole blood was collected into K2-EDTA tubes at each time point.
1 mg/kg was given intravenously, and whole blood was collected at 0.083, 0,25, $0.5, 1, 2, 4, 7, 24, 48, and 72 h after administration; 5 mg/kg were given orally by gavage, and whole blood was collected at 0.25, 0.5, 1, 2, 4, 7, 24, 48, and 72 h after administration in different batches, or the rats were killed at 4 and 24 h to obtain brains. The brain tissue samples were homogenized by adding 4 times the volume of buffer, and the whole blood and brain tissue samples were stored in a −80° C. refrigerator for later use. After the above whole blood and brain tissue samples were precipitated with acetonitrile for protein, the supernatant was taken and mixed with water in a ratio of 1:2, and 10 μL was taken for LC-MS/MS detection.

Structures are written as SMILES.

Ba/F3 (EGFR Del19/C797S), sequence (P00533 with tags, fused parts or gaps DEL746-750/C797S, form open): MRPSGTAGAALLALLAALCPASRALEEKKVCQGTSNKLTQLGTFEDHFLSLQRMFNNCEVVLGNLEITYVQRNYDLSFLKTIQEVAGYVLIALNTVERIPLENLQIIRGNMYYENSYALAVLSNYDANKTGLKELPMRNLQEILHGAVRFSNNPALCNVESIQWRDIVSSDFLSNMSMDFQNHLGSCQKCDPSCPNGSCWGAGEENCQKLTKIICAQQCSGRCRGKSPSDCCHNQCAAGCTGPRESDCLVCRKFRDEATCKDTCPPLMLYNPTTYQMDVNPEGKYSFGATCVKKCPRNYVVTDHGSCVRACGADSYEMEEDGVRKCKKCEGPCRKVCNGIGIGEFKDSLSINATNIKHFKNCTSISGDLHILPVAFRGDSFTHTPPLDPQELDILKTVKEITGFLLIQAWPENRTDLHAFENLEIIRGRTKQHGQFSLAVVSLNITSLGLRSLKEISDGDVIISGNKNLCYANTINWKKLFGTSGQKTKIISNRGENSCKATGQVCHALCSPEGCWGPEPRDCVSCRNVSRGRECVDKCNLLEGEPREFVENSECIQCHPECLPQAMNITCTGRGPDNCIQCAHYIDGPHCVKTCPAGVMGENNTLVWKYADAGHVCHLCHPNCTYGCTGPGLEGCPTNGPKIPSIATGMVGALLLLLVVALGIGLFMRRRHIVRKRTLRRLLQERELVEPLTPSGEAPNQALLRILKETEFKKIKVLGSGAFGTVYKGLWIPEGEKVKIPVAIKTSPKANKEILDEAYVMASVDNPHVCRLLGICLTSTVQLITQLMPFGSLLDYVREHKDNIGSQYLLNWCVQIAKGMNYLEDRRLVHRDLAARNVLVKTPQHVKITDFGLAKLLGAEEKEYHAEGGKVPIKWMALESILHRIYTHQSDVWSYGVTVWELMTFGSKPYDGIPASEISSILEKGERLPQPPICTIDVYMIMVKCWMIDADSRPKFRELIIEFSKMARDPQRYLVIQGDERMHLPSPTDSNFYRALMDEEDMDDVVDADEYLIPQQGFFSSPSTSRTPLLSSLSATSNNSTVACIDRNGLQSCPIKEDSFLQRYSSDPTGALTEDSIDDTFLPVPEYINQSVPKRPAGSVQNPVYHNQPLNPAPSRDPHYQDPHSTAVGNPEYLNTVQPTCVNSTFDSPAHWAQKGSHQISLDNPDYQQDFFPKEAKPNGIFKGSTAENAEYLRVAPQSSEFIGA
Ba/F3 (EGFR L858R/C797S), sequence (P00533 whole entry C797S/L858R): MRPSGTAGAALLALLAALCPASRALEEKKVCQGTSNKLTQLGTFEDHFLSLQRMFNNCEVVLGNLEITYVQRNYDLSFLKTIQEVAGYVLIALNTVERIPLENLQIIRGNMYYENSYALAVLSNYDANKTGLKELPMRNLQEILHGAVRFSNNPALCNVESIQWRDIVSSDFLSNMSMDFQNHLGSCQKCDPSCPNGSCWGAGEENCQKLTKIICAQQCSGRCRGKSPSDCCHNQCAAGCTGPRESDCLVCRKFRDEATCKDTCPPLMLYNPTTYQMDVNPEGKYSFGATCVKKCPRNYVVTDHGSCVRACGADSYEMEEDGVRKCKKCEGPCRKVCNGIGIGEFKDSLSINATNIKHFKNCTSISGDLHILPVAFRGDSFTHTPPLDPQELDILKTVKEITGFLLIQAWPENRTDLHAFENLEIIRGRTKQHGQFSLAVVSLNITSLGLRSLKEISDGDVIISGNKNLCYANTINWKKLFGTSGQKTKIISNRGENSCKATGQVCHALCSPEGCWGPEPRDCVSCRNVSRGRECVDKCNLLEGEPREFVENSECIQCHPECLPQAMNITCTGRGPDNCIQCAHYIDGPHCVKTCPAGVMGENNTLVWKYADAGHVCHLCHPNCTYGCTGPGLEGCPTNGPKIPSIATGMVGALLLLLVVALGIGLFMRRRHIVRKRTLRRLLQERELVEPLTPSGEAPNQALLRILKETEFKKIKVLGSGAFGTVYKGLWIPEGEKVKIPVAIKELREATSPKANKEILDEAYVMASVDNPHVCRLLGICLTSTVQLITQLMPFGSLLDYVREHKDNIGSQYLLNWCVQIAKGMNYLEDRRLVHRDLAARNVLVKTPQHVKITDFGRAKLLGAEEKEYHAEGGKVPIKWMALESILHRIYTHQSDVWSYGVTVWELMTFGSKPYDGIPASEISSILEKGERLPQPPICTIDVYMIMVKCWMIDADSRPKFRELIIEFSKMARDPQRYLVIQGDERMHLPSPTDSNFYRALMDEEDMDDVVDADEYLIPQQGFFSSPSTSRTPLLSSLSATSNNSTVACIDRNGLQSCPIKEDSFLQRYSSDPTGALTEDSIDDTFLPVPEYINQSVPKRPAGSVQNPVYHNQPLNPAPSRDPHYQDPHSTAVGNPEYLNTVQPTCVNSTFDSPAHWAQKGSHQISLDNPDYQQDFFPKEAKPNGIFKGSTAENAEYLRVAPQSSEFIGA
Ba/F3 (EGFR L858R/T790M/C797S), sequence (P00533 whole entry T790M/C797S/L858R): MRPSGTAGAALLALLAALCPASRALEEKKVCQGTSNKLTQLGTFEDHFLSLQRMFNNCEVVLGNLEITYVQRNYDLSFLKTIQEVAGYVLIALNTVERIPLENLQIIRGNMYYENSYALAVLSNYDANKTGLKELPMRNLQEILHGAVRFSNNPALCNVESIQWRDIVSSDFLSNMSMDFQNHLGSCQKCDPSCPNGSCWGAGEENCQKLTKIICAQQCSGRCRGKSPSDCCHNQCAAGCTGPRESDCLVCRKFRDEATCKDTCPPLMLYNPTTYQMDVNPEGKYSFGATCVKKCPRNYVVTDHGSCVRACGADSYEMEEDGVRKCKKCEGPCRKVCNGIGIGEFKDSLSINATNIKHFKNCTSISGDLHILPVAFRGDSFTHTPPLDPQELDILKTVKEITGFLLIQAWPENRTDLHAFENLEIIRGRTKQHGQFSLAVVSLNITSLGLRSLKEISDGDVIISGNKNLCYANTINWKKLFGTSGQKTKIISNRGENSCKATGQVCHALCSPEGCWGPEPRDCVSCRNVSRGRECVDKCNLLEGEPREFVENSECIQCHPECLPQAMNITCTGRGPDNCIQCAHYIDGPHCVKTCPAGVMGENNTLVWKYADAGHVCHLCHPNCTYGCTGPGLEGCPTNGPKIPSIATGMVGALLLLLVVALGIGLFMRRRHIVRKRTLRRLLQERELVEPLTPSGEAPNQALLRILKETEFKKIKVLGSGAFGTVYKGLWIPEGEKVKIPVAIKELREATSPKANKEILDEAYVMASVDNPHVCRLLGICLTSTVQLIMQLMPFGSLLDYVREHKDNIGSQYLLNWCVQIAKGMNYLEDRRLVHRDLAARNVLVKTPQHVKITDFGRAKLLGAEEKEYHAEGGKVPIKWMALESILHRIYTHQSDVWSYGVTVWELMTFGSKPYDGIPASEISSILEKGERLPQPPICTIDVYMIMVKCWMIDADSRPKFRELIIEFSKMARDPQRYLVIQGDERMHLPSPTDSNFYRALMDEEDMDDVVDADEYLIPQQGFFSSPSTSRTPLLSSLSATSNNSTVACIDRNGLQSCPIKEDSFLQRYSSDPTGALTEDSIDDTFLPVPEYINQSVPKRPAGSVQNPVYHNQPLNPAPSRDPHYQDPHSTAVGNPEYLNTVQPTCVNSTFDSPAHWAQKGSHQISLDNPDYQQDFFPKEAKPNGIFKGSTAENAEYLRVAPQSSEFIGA
Ba/F3 cells overexpressing EGFR Del19/T790M/C797S, sequence (P00533 with tags, fused parts or gaps DEL746-750/T790M/C797S, form open): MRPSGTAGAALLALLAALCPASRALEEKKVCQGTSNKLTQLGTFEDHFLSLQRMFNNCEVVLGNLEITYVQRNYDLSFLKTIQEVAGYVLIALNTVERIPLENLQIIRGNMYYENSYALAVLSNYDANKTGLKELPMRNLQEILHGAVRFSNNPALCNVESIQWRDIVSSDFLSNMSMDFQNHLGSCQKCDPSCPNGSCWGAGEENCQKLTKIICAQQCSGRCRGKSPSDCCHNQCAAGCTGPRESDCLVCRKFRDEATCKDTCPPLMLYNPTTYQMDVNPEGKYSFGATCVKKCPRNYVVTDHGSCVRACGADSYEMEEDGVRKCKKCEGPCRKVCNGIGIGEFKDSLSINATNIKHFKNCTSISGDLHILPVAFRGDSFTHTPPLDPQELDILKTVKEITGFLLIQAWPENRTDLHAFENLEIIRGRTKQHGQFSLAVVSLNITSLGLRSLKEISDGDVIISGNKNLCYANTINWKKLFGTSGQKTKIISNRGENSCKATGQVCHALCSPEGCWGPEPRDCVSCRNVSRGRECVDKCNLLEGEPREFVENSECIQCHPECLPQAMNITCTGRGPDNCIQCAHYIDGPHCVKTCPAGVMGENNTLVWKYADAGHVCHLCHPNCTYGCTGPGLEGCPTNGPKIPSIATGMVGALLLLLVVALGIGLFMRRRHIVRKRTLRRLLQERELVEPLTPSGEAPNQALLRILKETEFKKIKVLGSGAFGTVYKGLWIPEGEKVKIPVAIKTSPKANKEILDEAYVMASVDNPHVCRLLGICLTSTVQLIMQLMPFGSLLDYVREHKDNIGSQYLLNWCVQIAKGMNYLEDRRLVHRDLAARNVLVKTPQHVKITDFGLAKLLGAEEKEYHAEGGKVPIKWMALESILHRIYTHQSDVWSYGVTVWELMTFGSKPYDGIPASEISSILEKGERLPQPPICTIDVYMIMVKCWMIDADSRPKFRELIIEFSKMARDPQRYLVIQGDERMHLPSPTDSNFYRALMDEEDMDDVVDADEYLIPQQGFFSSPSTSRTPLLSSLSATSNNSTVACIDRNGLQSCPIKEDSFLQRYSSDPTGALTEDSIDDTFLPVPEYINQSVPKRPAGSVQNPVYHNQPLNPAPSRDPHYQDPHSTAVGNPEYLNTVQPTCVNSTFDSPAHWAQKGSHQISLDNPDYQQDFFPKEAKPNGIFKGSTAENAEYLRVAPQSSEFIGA

For `Cc1cc2cc(n1)-c1cnc(F)cc1OCCC[C@@H](C)Cn1c(nc3ccc(N4CCC5(CC4)CCN(C4COC4)CC5)cc31)NC2=O` [Example 81, (R)-1^6-fluoro-2^6,7-dimethyl-5^6-(9-(oxetan-3-yl)-3,9-diazaspiro [5.5]undecan-3-yl)-5^1H-11-oxa-4-aza-5(2,1)-benzo[d] imidazola-1(3,4),2(2,4)-dipyridinacyclo-undecaphan-3-one], the GI50 amounted to 1.4 nM in series [1], 4.3 nM in series [2], 0.1 nM at Ba/F3 (EGFR Del19/C797S) and 5.3 nM at Ba/F3 (EGFR L858R/C797S). The IC50 – broadly, the concentration that inhibits the measured activity by half – in series [3] turned out to be 1750 nM. Also, the AUC(0-t) (commonly exposure summed from dosing to a finite time, without extrapolation to infinity) in “Pharmacokinetics in rats” was found to be 1840 ng·h/mL. The half-life – broadly, the time needed for the level to fall by half in the phase considered – in “Pharmacokinetics in rats” was 18.8 h. Besides, the Cmax – broadly, the maximum level reached in the sampled fluid or tissue – in the series “Pharmacokinetics in rats” was found to be 116 ng/mL.
As to `CO[C@@H]1CCC(N2CCC3(CCN(c4ccc5nc6n(c5c4)CCCCCOc4ccncc4-c4cc(cc(C)n4)C(=O)N6)CC3)CC2)C[C@@H]1F` (stereo partly drawn) [Example 15, 5^6-(9-((3S,4R)-3-fluoro-4-methoxypiperidin-1-yl)-3-azaspiro[5.5]undecan-3-yl)-2^6-methyl-5^1H-11-oxa-4-aza-5(2,1)-benzo[d]imidazola-1(3,4),2(2,4) -dipyridinacycloundecaphan-3-one], in “Pharmacokinetics in rats”, the exposure AUC(0-t) stood at 3390 ng·h/mL and the Cmax was 104 ng/mL.
In the same order, the values of `Cc1cc2cc(n1)-c1cnn(C)c1OCCC[C@@H](C)CN1/C(=N/C2=O)Nc2ccc(CN3CCC4(CC3)COC4)cc21` [compound 2, reference compound] are 132 ng·h/mL and 27.3 ng/mL.
Regarding `Cc1cc2cc(n1)-c1cnccc1OCCCCCn1c(nc3cc(F)c(N4CCC5(CCN(C)CC5)CC4)cc31)NC2=O` [Example 14, 5^5-fluoro-2^6-methyl-5^6-(9-methyl-3,9-diazaspiro[5.5]undecan-3-yl)-5^1H-11-oxa-4-aza-5(2,1)-benzo[d]imidazola-1(3,4),2(2,4)-dipyridinacycloundecaphan-3-one], the GI50 in series [1] is 0.37 nM; in series [2], 1.5 nM; at Ba/F3 (EGFR Del19/C797S) it was 0.18 nM; at Ba/F3 (EGFR L858R/C797S), 1.8 nM. Moreover, the midpoint of inhibition in series [3], the IC50, lay at 805 nM.
In the same order, the values of `Cc1cc2cc(n1)-c1cnc(F)cc1OCCC[C@@H](C)Cn1c(nc3ccc(N4CCC5(CCNCC5)CC4)cc31)NC2=O` [Example 9, (R)-1^6-fluoro-2^6,7-dimethyl-5^6-(3,9-driazaspiro[3.5]undecan-3-yl)-5^1-11-oxa-4-aza-5(2,1)-benzo[d]imidazola-1(3,4),2(2,4)-dipyridinacycloundecaphan-3-one] are 0.73 nM, 1.1 nM, 0.77 nM, 3.6 nM and 425 nM.
In the same order, the values of `Cc1cc2cc(n1)-c1cnccc1OCCC[C@@H](C)Cn1c(nc3ccc(N4CCC5(CC4)CCN(C4CC4)CC5)cc31)NC2=O` [Example 45, (R)-5^6-(9-cyclopropyl-3,9-diazaspiro[5.5]undecan-3-yl)-2^6,7-dimethyl-5^1H-11-oxa-4-aza-5(2,1)-benzo [d]imidazola-1(3,4),2(2,4)-dipyridinacyclo-undecaphan-3-one] are 1.6 nM, 3.7 nM, 0.27 nM, 2.1 nM and 701 nM.

(Values after patent US20250223300A1, “MACROCYCLIC COMPOUND AND PHARMACEUTICAL COMPOSITION AND USE THEREOF” (BETTA PHARMACEUTICALS CO., LTD, priority 2022, published 2025).)
